In the supplement of paper PMC11451515:

Tested on: P12-Ichikawa
Assay: cell viability relative to DMSO control; higher = less cytotoxic
Conditions: 48 h
In short: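 Leukemia cells (NOMO1 or SEM, 500 cells/well; P12-Ichikawa, 1000 cells/well) were seeded in 5 μl in 1536-well plates after at least four passages of adaptation to each medium. They received library compounds in DMSO by pin dosing, 11 threefold points from 47 μM to 0.79 nM. Luminescence with CellTiter-Glo One was read after 48 h at 37°C. Viability is stated per plate relative to DMSO wells, with cell-free wells as background.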

[1] = HPLM + 10% dialyzed FBS, 0.000781 µM
[2] = HPLM + 10% dialyzed FBS, 0.00234 µM
[3] = HPLM + 10% dialyzed FBS, 0.00702 µM
[4] = HPLM + 10% dialyzed FBS, 0.0211 µM
[5] = HPLM + 10% dialyzed FBS, 0.0632 µM
[6] = HPLM + 10% dialyzed FBS, 0.19 µM
[7] = HPLM + 10% dialyzed FBS, 0.569 µM
[8] = HPLM + 10% dialyzed FBS, 1.71 µM
[9] = HPLM + 10% dialyzed FBS, 5.12 µM
[10] = HPLM + 10% dialyzed FBS, 15.4 µM
[11] = HPLM + 10% dialyzed FBS, 46.1 µM
[12] = RPMI 5 mM glucose + 10% FBS, 0.000781 µM
[13] = RPMI 5 mM glucose + 10% FBS, 0.00234 µM
[14] = RPMI 5 mM glucose + 10% FBS, 0.00702 µM
[15] = RPMI 5 mM glucose + 10% FBS, 0.0211 µM
[16] = RPMI 5 mM glucose + 10% FBS, 0.0632 µM
[17] = RPMI 5 mM glucose + 10% FBS, 0.19 µM
[18] = RPMI 5 mM glucose + 10% FBS, 0.569 µM
[19] = RPMI 5 mM glucose + 10% FBS, 1.71 µM
[20] = RPMI 5 mM glucose + 10% FBS, 5.12 µM
[21] = RPMI 5 mM glucose + 10% FBS, 15.4 µM
[22] = RPMI 5 mM glucose + 10% FBS, 46.1 µM
[23] = RPMI 5 mM glucose + 10% dialyzed FBS, 0.000781 µM
[24] = RPMI 5 mM glucose + 10% dialyzed FBS, 0.00234 µM
[25] = RPMI 5 mM glucose + 10% dialyzed FBS, 0.00702 µM
[26] = RPMI 5 mM glucose + 10% dialyzed FBS, 0.0211 µM
[27] = RPMI 5 mM glucose + 10% dialyzed FBS, 0.0632 µM
[28] = RPMI 5 mM glucose + 10% dialyzed FBS, 0.19 µM
[29] = RPMI 5 mM glucose + 10% dialyzed FBS, 0.569 µM
[30] = RPMI 5 mM glucose + 10% dialyzed FBS, 1.71 µM
[31] = RPMI 5 mM glucose + 10% dialyzed FBS, 5.12 µM
[32] = RPMI 5 mM glucose + 10% dialyzed FBS, 15.4 µM
[33] = RPMI 5 mM glucose + 10% dialyzed FBS, 46.1 µM

| Compound | cell viability [1] [%] | cell viability [2] [%] | cell viability [3] [%] | cell viability [4] [%] | cell viability [5] [%] | cell viability [6] [%] | cell viability [7] [%] | cell viability [8] [%] | cell viability [9] [%] | cell viability [10] [%] | cell viability [11] [%] | cell viability [12] [%] | cell viability [13] [%] | cell viability [14] [%] | cell viability [15] [%] | cell viability [16] [%] | cell viability [17] [%] | cell viability [18] [%] | cell viability [19] [%] | cell viability [20] [%] | cell viability [21] [%] | cell viability [22] [%] | cell viability [23] [%] | cell viability [24] [%] | cell viability [25] [%] | cell viability [26] [%] | cell viability [27] [%] | cell viability [28] [%] | cell viability [29] [%] | cell viability [30] [%] | cell viability [31] [%] | cell viability [32] [%] | cell viability [33] [%] |
| --- | --- | --- | --- | --- | --- | --- | --- | --- | --- | --- | --- | --- | --- | --- | --- | --- | --- | --- | --- | --- | --- | --- | --- | --- | --- | --- | --- | --- | --- | --- | --- | --- | --- |
| NC[C@H](O)c1ccc(O)c(O)c1 | 98.9 | 100 | 99 | 103 | 98.8 | 102 | 97.4 | 92.4 | 92.8 | 92.6 | 83.5 | 101 | 99.5 | 94.1 | 98.9 | 105 | 96.7 | 97.6 | 92.3 | 91.2 | 90.2 | 84.4 | 89.9 | 96 | 99.9 | 88.1 | 96.1 | 97.6 | 86.3 | 93.6 | 92 | 86.5 | 81.5 |
| CC1(C)[C@@H](O)CC[C@@]2(C)[C@H]1CC[C@]3(C)[C@@H]2C(=O)\C=C/4[C@@H]5C[C@](C)(CC[C@]5(C)CC[C@@]34C)C(O)=O | 99.9 | 125 | 117 | 112 | 109 | 118 | 110 | 113 | 104 | 102 | 97.2 | 109 | 121 | 116 | 122 | 114 | 118 | 110 | 122 | 100 | 110 | 111 | 97.5 | 105 | 113 | 113 | 108 | 104 | 98.9 | 106 | 94.6 | 103 | 96.9 |
| Cc1nc(-c2ccc(-c3ccc(C(=O)N4CCc5cc6c(cc54)C4(CCN(C)CC4)CO6)cc3)c(C)c2)no1 | 106 | 114 | 111 | 116 | 122 | 111 | 121 | 123 | 119 | 119 | 120 | 107 | 112 | 106 | 116 | 117 | 114 | 123 | 115 | 121 | 124 | 118 | 107 | 107 | 113 | 116 | 110 | 121 | 120 | 116 | 115 | 121 | 126 |
| CCC[C@H](Nc1nc(-c2ccc(NC(=O)NCC)c(OC)c2)ncc1C)c1cccnc1 | 114 | 115 | 117 | 120 | 22.3 | 11.4 | 9.4 | 8.46 | 7.94 | 7.62 | 6.68 | 125 | 137 | 123 | 136 | 21.8 | 12.7 | 11.7 | 8.52 | 8.89 | 7.34 | 6.34 | 120 | 125 | 122 | 124 | 29.6 | 18.1 | 17.2 | 10.4 | 11 | 10.1 | 7.87 |
| C=C1CCC2[C@](C)(CO)C(O)CC[C@]2(C)C1C/C=C1/C(=O)OCC1O (stereo not given in full) | 122 | 124 | 122 | 114 | 121 | 117 | 104 | 103 | 106 | 114 | 115 | 115 | 112 | 118 | 106 | 114 | 110 | 108 | 109 | 107 | 98.6 | 107 | 120 | 115 | 124 | 115 | 116 | 111 | 109 | 103 | 98.7 | 110 | 106 |
| CNC(=O)c1nn(C)c2c1C(C)(C)Cc1cnc(Nc3ccc(N4CCN(C)CC4)cc3)nc1-2 | 106 | 107 | 112 | 105 | 108 | 111 | 108 | 83.7 | 76 | 36.7 | 35.6 | 113 | 113 | 119 | 123 | 117 | 120 | 109 | 79 | 65.4 | 44.8 | 26.4 | 107 | 119 | 123 | 123 | 110 | 115 | 95.9 | 77.1 | 61.9 | 36.1 | 35.3 |
| COc1cc2c(cc1OC)CN(CCc1ccc(NC(=O)c3cccc4c(=O)c5cccc(OC)c5[nH]c34)cc1)CC2 | 101 | 105 | 107 | 118 | 111 | 112 | 123 | 21.1 | 11.5 | 5 | 3.03 | 96.9 | 101 | 102 | 111 | 109 | 112 | 113 | 119 | 25.2 | 5.14 | 2.82 | 104 | 109 | 112 | 111 | 113 | 121 | 110 | 103 | 20 | 6.37 | 2.85 |
| Cc1nnc(C(C)C)n1[C@@H]1C[C@H]2CC[C@@H](C1)N2CC[C@H](NC(=O)C1CCC(F)(F)CC1)c1ccccc1 | 88.3 | 99.8 | 107 | 111 | 105 | 102 | 113 | 110 | 101 | 89.1 | 63.8 | 85 | 90.2 | 94.3 | 100 | 95.9 | 103 | 107 | 99.4 | 104 | 92 | 59.2 | 71.4 | 96 | 89.1 | 101 | 94.5 | 105 | 97.4 | 103 | 101 | 81.1 | 48.3 |
| COc1ccc(/C=C/C(=O)Nc2ccccc2C(=O)O)cc1OC | 110 | 111 | 108 | 112 | 121 | 108 | 93.1 | 100 | 108 | 99.3 | 102 | 112 | 108 | 113 | 115 | 113 | 101 | 107 | 106 | 107 | 105 | 102 | 103 | 101 | 113 | 114 | 111 | 110 | 98.5 | 80.4 | 103 | 98.5 | 94.8 |
| O=C1\C=C(OC2=C(C=CC=C12)C3=CC=CC4=C3SC5=C4C=CC=C5)\N6CCOCC6 | 119 | 125 | 127 | 129 | 137 | 130 | 130 | 131 | 129 | 132 | 121 |  |  |  |  |  |  |  |  |  |  |  |  |  |  |  |  |  |  |  |  |  |  |
| N#Cc1cc(NC(=O)Nc2nnc(-c3ccncc3)s2)ccc1-c1cn[nH]c1 | 117 | 125 | 122 | 125 | 120 | 116 | 122 | 115 | 113 | 106 | 110 | 120 | 127 | 125 | 126 | 110 | 116 | 119 | 113 | 119 | 112 | 109 | 121 | 126 | 117 | 124 | 126 | 126 | 128 | 124 | 115 | 112 | 105 |
| CCOc1cc(C(=O)Nc2ccc(Cl)c(-c3nc4ccccc4[nH]3)c2)cc(OCC)c1OCC | 74.3 | 82.5 | 89 | 91 | 91.9 | 92.9 | 98.9 | 96.1 | 92 | 94.1 | 84.6 | 81.6 | 89.8 | 86.7 | 88.4 | 95.8 | 92.9 | 86.7 | 86.5 | 86.6 | 95.4 | 60.8 | 78.9 | 76.7 | 84 | 86.5 | 85.8 | 81.2 | 88.3 | 82.8 | 79.8 | 81.1 | 53.6 |
| C/C1=C/C(=C(/CNC(=O)C2=CC(=CC3=C2C=N[N]3C4CCCC4)C5=CC=C(CN6CCOCC6)C=C5)C(=O)N1)C | 113 | 118 | 118 | 117 | 124 | 120 | 114 | 112 | 114 | 106 | 38.6 | 128 | 124 | 120 | 117 | 126 | 123 | 126 | 123 | 115 | 122 | 45.8 |  |  |  |  |  |  |  |  |  |  |  |
| CCCCN1CCC(CNC(=O)c2c3n(c4ccccc24)CCCO3)CC1 | 100 | 104 | 109 | 112 | 115 | 109 | 116 | 110 | 107 | 95 | 68.9 | 107 | 105 | 109 | 112 | 118 | 101 | 112 | 114 | 112 | 90.1 | 68 | 92.8 | 107 | 106 | 98.5 | 113 | 105 | 112 | 112 | 109 | 94.7 | 78.5 |
| COc1cc2c(cc1O)CCC1C2CC[C@@]2(C)C1CC[C@@H]2O (stereo not given in full) | 116 | 120 | 118 | 89.9 | 120 | 112 | 114 | 65.1 | 31.8 | 17.9 | 15.8 |  |  |  |  |  |  |  |  |  |  |  | 120 | 125 | 115 | 114 | 126 | 120 | 115 | 96.3 | 47 | 27.8 | 26.2 |
| Clc1ccc(CCC(Cn2ccnc2)Sc2c(Cl)cccc2Cl)cc1 (stereo not given) | 92.8 | 92.5 | 96 | 90.2 | 93.9 | 102 | 101 | 94.7 | 91.9 | 91.2 | 91.5 | 90 | 94.6 | 96 | 103 | 99.8 | 94.8 | 87.8 | 96 | 91.1 | 91.9 | 63.2 | 81.1 | 72.8 | 84.4 | 95.1 | 84.6 | 86.4 | 90.1 | 83.7 | 89.1 | 90.1 | 64.7 |
| CC(C)[C@H](C(=O)Nc1ccc(C(=O)NO)cc1)c1ccccc1 | 117 | 120 | 121 | 129 | 125 | 125 | 118 | 87.9 | 7.68 | 5.55 | 6.05 |  |  |  |  |  |  |  |  |  |  |  |  |  |  |  |  |  |  |  |  |  |  |
